Reference: ChEMBL document CHEMBL3885881, “DrugMatrix”

Species: Rattus norvegicus
Experiment: DrugMatrix - Regimen: Daily Repeat
Assay type: toxicity, organism-based, Sprague-Dawley
Set-up: regimen Daily Repeat, gender Male, age 6-8 weeks
Conditions: in vivo, po, route oral GAVAGE, vehicle .5 % CMC; for BASOPHIL / EOSINOPHIL / ERYTHROCYTE COUNT / HEMATOCRIT / HEMOGLOBIN / LEUKOCYTE COUNT / LYMPHOCYTE / MEAN CORPUSCULAR HEMOGLOBIN / MEAN CORPUSCULAR HEMOGLOBIN CONCENTRATION / MEAN CORPUSCULAR VOLUME / MONOCYTE / NEUTROPHIL / PLATELET COUNT: tissue Blood; for ALANINE AMINOTRANSFERASE / ALBUMIN / ALKALINE PHOSPHATASE / ASPARTATE AMINOTRANSFERASE / BLOOD UREA NITROGEN / CHLORIDE / CHOLESTEROL / CREATINE PHOSPHOKINASE / CREATININE / GLUCOSE / PHOSPHORUS / POTASSIUM / SODIUM / TOTAL BILIRUBIN / TOTAL PROTEIN: tissue Plasma
[1] = 0 mg/kg, 72 h, dose level Control, time 3 day
[2] = 0 mg/kg, 120 h, dose level Control, time 5 day
[3] = 36 mg/kg, 72 h, dose level Low, time 3 day
[4] = 36 mg/kg, 120 h, dose level Low, time 5 day

## CCCCc1oc2ccccc2c1C(=O)c1cc(I)c(OCCN(CC)CC)c(I)c1 [AMIODARONE]
[1]
  BASOPHIL: 0%
  EOSINOPHIL: 0%
  ERYTHROCYTE COUNT: 6.19 x10E6/uL
  HEMATOCRIT: 36.94%
  HEMOGLOBIN: 14.58 G/DL
  LEUKOCYTE COUNT: 11.54 x10E3/uL
  LYMPHOCYTE: 84.8%
  MEAN CORPUSCULAR HEMOGLOBIN: 23.58 pg
  MEAN CORPUSCULAR HEMOGLOBIN CONCENTRATION: 39.44 G/DL
  MEAN CORPUSCULAR VOLUME: 59.76 fL
  MONOCYTE: 1.4%
  NEUTROPHIL: 13.8%
  PLATELET COUNT: 1068.8 x10E3/uL
  ALANINE AMINOTRANSFERASE: 38.17 u/L
  ALBUMIN: 3.88 G/DL
  ALKALINE PHOSPHATASE: 391.33 u/L
  ASPARTATE AMINOTRANSFERASE: 69.83 u/L
  BLOOD UREA NITROGEN: 15 mg/dL
  CHLORIDE: 104.17 MEQ/L
  CHOLESTEROL: 72.17 mg/dL
  CREATINE PHOSPHOKINASE: 174.33 u/L
  CREATININE: 0.58 mg/dL
  GLUCOSE: 192.67 mg/dL
  PHOSPHORUS: 10.52 mg/dL
  POTASSIUM: 6.8 MEQ/L
  SODIUM: 149.67 MEQ/L
  TOTAL BILIRUBIN: 0.78 mg/dL
  TOTAL PROTEIN: 6.28 G/DL
[2]
  BASOPHIL: 0%
  EOSINOPHIL: 0.17%
  ERYTHROCYTE COUNT: 6.72 x10E6/uL
  HEMATOCRIT: 40.02%
  HEMOGLOBIN: 15.83 G/DL
  LEUKOCYTE COUNT: 9.5 x10E3/uL
  LYMPHOCYTE: 87.17%
  MEAN CORPUSCULAR HEMOGLOBIN: 23.57 pg
  MEAN CORPUSCULAR HEMOGLOBIN CONCENTRATION: 39.62 G/DL
  MEAN CORPUSCULAR VOLUME: 59.55 fL
  MONOCYTE: 1.67%
  NEUTROPHIL: 11%
  PLATELET COUNT: 1053.67 x10E3/uL
  ALANINE AMINOTRANSFERASE: 26.33 u/L
  ALBUMIN: 4.02 G/DL
  ALKALINE PHOSPHATASE: 316.67 u/L
  ASPARTATE AMINOTRANSFERASE: 61.33 u/L
  BLOOD UREA NITROGEN: 18.67 mg/dL
  CHLORIDE: 108 MEQ/L
  CHOLESTEROL: 65.17 mg/dL
  CREATINE PHOSPHOKINASE: 161.17 u/L
  CREATININE: 0.75 mg/dL
  GLUCOSE: 177.33 mg/dL
  PHOSPHORUS: 9.72 mg/dL
  POTASSIUM: 6.18 MEQ/L
  SODIUM: 150.5 MEQ/L
  TOTAL BILIRUBIN: 0.68 mg/dL
  TOTAL PROTEIN: 6.55 G/DL
[3]
  BASOPHIL: 0%
  EOSINOPHIL: 0%
  ERYTHROCYTE COUNT: 6.18 x10E6/uL
  HEMATOCRIT: 36.8%
  HEMOGLOBIN: 14.4 G/DL
  LEUKOCYTE COUNT: 12.87 x10E3/uL
  LYMPHOCYTE: 77%
  MEAN CORPUSCULAR HEMOGLOBIN: 23.4 pg
  MEAN CORPUSCULAR HEMOGLOBIN CONCENTRATION: 39.13 G/DL
  MEAN CORPUSCULAR VOLUME: 59.8 fL
  MONOCYTE: 2.67%
  NEUTROPHIL: 20.33%
  PLATELET COUNT: 1095 x10E3/uL
  ALANINE AMINOTRANSFERASE: 33 u/L
  ALBUMIN: 3.77 G/DL
  ALKALINE PHOSPHATASE: 365.33 u/L
  ASPARTATE AMINOTRANSFERASE: 56.33 u/L
  BLOOD UREA NITROGEN: 15 mg/dL
  CHLORIDE: 103.67 MEQ/L
  CHOLESTEROL: 84.33 mg/dL
  CREATINE PHOSPHOKINASE: 134.67 u/L
  CREATININE: 0.7 mg/dL
  GLUCOSE: 159.33 mg/dL
  PHOSPHORUS: 11.13 mg/dL
  POTASSIUM: 6.63 MEQ/L
  SODIUM: 148.67 MEQ/L
  TOTAL BILIRUBIN: 0.7 mg/dL
  TOTAL PROTEIN: 6.13 G/DL
[4]
  BASOPHIL: 0%
  EOSINOPHIL: 0.33%
  ERYTHROCYTE COUNT: 6.73 x10E6/uL
  HEMATOCRIT: 39.47%
  HEMOGLOBIN: 15.6 G/DL
  LEUKOCYTE COUNT: 11.67 x10E3/uL
  LYMPHOCYTE: 86.33%
  MEAN CORPUSCULAR HEMOGLOBIN: 23.27 pg
  MEAN CORPUSCULAR HEMOGLOBIN CONCENTRATION: 39.63 G/DL
  MEAN CORPUSCULAR VOLUME: 58.73 fL
  MONOCYTE: 2%
  NEUTROPHIL: 11.33%
  PLATELET COUNT: 1213.67 x10E3/uL
  ALANINE AMINOTRANSFERASE: 26 u/L
  ALBUMIN: 3.93 G/DL
  ALKALINE PHOSPHATASE: 392.33 u/L
  ASPARTATE AMINOTRANSFERASE: 57.67 u/L
  BLOOD UREA NITROGEN: 14.67 mg/dL
  CHLORIDE: 106.67 MEQ/L
  CHOLESTEROL: 88 mg/dL
  CREATINE PHOSPHOKINASE: 148.33 u/L
  CREATININE: 0.7 mg/dL
  GLUCOSE: 154.67 mg/dL
  PHOSPHORUS: 10.83 mg/dL
  POTASSIUM: 6.67 MEQ/L
  SODIUM: 150.33 MEQ/L
  TOTAL BILIRUBIN: 0.93 mg/dL
  TOTAL PROTEIN: 6.6 G/DL
